Key:
[1] = test system: microvascular endothelial cells (HMEC); experiment: Matrigel tube formation assay of HMEC; assay type: cell-based, human; conditions: single addition, 10 μg/mL, 7 days
Experimental: (§1) The Matrigel™ assay is one of the most popular and widely used in vitro angiogenesis assays (22). Matrigel™ is a semisolid synthetic mixture of extracellular matrix proteins which simulate the matrix that physiologically exist beneath the endothelial cell wall of a blood vessel. When the cells of question are seeded onto this matrix in microscopic chamber slides, they are activated to form tubular structures in 3-7 days, but only in the case that they have an endothelial phenotype. Therefore, this assay is suitable to show the potential capacity of cells to give rise to a tumor vasculature.
(§2) TuDC-ELC and mature, differentiated endothelial cells, [human umbilical vene (HUVEC) or microvascular endothelial cells (HMEC) as “stable” controls] were incubated in the presence or absence of oligotide or Defibrotide (10 μg/mL each) for 7 days.

[2] = test system: human umbilical vene (HUVEC) endothelial cells; experiment: Matrigel tube formation assay of HUVEC; assay type: cell-based; conditions: single addition, 10 μg/mL, 7 days
Experimental: as §1, §2

[3] = test system: transdifferentiating ELC (TuDC-ELC); experiment: Matrigel tube formation assay of TuDC-ELC; assay type: cell-based, human; conditions: for tube formation of TuDC-ELC in Matrigel: 10 μg/mL, 7 days, clinical and subclinical concentrations
Source text: We have recently developed a model for an alternative pathway of tumor angiogenesis. […] These endothelial-like cells (ELC) can transdifferentiate from tumor-associated dendritic cells under specific culture conditions (11). Briefly, monocytes are elutriated from leukapheresis products of healthy human blood donors and cultured in the presence of granulocyte-macrophage-colony stimulating factor (GM-CSF) and interleukin 4 (IL-4) to stimulate the differentiation of dendritic cells (DC). In addition, cells are treated with a cocktail specifically released by tumor cells (M-CSF, IL.6 and lactate, Gottfried et al., manucript submitted) to promote the outgrowth of tumor-associated dendritic cells (TuDC).
In addition, they are able to form tube-like structures in Matrigel™, an in vitro assay of angiogenesis.
as §1, §2
By the help of a complimentary software from the NIH (Image J, http://rsb.info.nih.gov/ij/), we are able to quantify these effects, the total length of tubes and the area of the photograph are assessed, the microvascular density (MVD) is then given in total length/area [pix-1].

[4] = test system: activated p70S6 kinase (p-p70S6); experiment: Western Blot analyses of activated p70S6 kinase; assay type: cell-based; conditions: preliminary evidence
[5] = test system: human microvascular endothelial cells; experiment: Angiogenesis assay of microvascular endothelial cells vascularizing through a layer of dermal fibroblasts; assay type: cell-based
Experimental: The aortic ring assay investigates macrovascular endothelial cells. But often, the tumor vasculature consists of microvascular endothelial cells. Therefore, a third in vitro angiogenesis assay was performed on the basis of microvascular endothelial cells vascularizing through a layer of dermal fibroblasts after 9-11 days of culture. These vessel-like structures can subsequently be visualized by staining for CD31 and vWF.

human gastric carcinoma = experiment: Dorsal skin chamber assay, human gastric carcinoma mouse model (Xenograft system); assay type: in vivo; conditions: first data; treated vs control tumors
Source text: We are currently performing a dorsal skin chamber assay (14) that investigates the effect of defibrotide in a highly vascularized human gastric carcinoma mouse model (Xenograft system). […] This set of experiments will be reproduced in due time.

Substance	tube formation potential [1]	tube formation potential [2]	tube formation of TuDC-ELC in Matrigel [3]	microvascular density (MVD), total length/area ([3]; TuDC-ELC, p=0.02, TTEST, FIG. 1B)	effect on activated p70S6 kinase (p-p70S6) [4]	angiogenesis of human microvascular endothelial cells ([5]; daily application, 9-11 days of culture, CD31 and vWF staining)	most effective concentration ([5]; human microvascular endothelial cells, FIGS. 3A and B)	microvascular density (MVD) of tumors (human gastric carcinoma)
defibrotide	not affected	not affected	inhibit tube formation	downregulates	downregulating effect	block angiogenesis	around 10 μg/mL	lower than that of control tumors
oligotide			inhibit tube formation					

From US20080194507A1, “Defibrotide An/Or Oligodeoxyribonucleotides For Treating Angiogenesis-Dependent Tumors” (priority 2005, published 2008)
